US9750742B2, “Small molecular inhibitors of RAD51 recombinase and methods thereof” (Drexel University, priority 2011, dated 2017)

Tests used:
[1] = tested on: I-SceI; test: Western blotting, I-SceI expression level; type: cell-based; details: with or without B02
Protocol: Then, both pCBASce-transfected and untransfected cells were trypsinized and resuspended in DMEM supplemented with 10% FBS, 100 units/ml penicillin and 100 μg/ml streptomycin. The suspensions were centrifuged at 1000×g for 5 min at 4° C., the pellets were washed 3 times with cold PBS and then resuspended in lysate buffer containing 50 mM HEPES (pH 7.5), 50 mM NaCl, 5 mM EDTA, 1% Triton X-100, 50 mM NaF, and 10 mM Na4P2O7, 1 mM phenylmethylsulfonyl fluoride (PMSF) and proteinase inhibitor cocktail (Roche Applied Science) for 30 min at 4° C. The cell lysates were centrifuged at 16000×g, for 15 min at 4° C. The supernatants were collected and protein concentrations were determined by the Bradford assay using bovine serum albumin (BSA) as a standard. Equivalent amounts of proteins were loaded on 12% SDS-PAGE gels and after electrophoretic separation were transferred on a PVDF membrane (Osmonics, Inc). […] Immunoblot signals were detected using Enhanced Chemiluminescence (ECL) reagent (Pierce). […]

[2] = tested on: RAD51; test: Western blotting, RAD51 expression level; type: cell-based, human; details: B02 20 μM versus no treatment
Protocol: The pellets were washed three times with cold PBS and then resuspended in lysis buffer containing 50 mM HEPES, pH 7.5, 50 mM NaCl, 5 mM EDTA, 1% Triton X-100, 50 mM NaF, and 10 mM Na4P2O7, 1 mM PMSF, and proteinase inhibitor cocktail (Roche Applied Science) for 30 min at 4° C. The cell lysates were centrifuged at 16,000×g, for 15 min at 4° C., and then the supernatants were collected and protein concentrations were determined using the Bradford assay. Aliquots containing 50 Ξg of total protein were analyzed by 12% SDS-PAGE. […]
Then, both pCBASce-transfected and untransfected cells were trypsinized and resuspended in DMEM supplemented with 10% FBS, 100 units/ml penicillin and 100 μg/ml streptomycin. […] The supernatants were collected and protein concentrations were determined by the Bradford assay using bovine serum albumin (BSA) as a standard. […] Immunoblot signals were detected using Enhanced Chemiluminescence (ECL) reagent (Pierce). […]

[3] = tested on: HEK cells; test: Clonogenic survival, HEK cells sensitivity to cisplatin; type: cell-based, human
Protocol: Briefly, MEF cells were trypsinized and the appropriate number of cells was replated on 10 cm tissue culture dishes. […] Cells were fixed and stained using staining solution (0.05% crystal violet, 50% methanol in PBS); colonies were counted using an AlphaImager 3400 (Alpha Innotech Inc.). The percent of survival was determined as described (Hall & Giccia, 2005, “Radiobiology for the Radiologist”, 6th Ed., Philadelphia, Pa.: Lippincott Williams & Wilkins, pp. 30-45). The percent of survival obtained from untreated cells was normalized to 100% survival.
To suppress RAD51 expression, HEK cells were transfected with 100 nM RAD51 siRNA (sc-36361; Santa Cruz Biotechnology). Briefly, cells (1×10^6) were seeded in a 3.5-cm tissue culture plate and incubated overnight, then the medium was removed and the cell layer was washed three times with PBS. Transfection was carried out by adding 1 ml transfection solution containing 100 pmol […] siRNA and 10 μl siRNA transfection reagent (sc-29528; Santa Cruz Biotechnology) in Opti-MEM I Reduced-Serum medium (Invitrogen) to each plate. Six to 7 hours after transfection the medium was replaced with fresh DMEM+. Twenty-four, 48, 72, and 96 h after transfection, the RAD51 level was determined using Western blotting. As a specificity control scrambled siRNA (sc-37007; Santa Cruz Biotechnology) was used instead of RAD51 siRNA.

O=c1c2ccccc2nc(/C=C/c2cccnc2)n1Cc1ccccc1 [Compound B02, (E)-3-benzyl-2-(2-(pyridin-3-yl)vinyl)quinazolin-4(3H)-one]
expression of I-SceI protein [1]: did not affect
expression of RAD51 [2]: comparable
incubation time at which maximal sensitivity was reached ([3]; B02 5 μM, cisplatin 16 μM): 16 h
incubation time required to increase the sensitivity of HEK cells for cisplatin ([3]; B02 5 μM, cisplatin 16 μM): 10 to 12 h
sensitization of HEK cells to cisplatin ([3]; B02 combined with RAD51 siRNA versus each alone): more strongly sensitized
